{
  "source": "paper PMC9500072",
  "about": "“Topical application of an irreversible small molecule inhibitor of lysyl oxidases ameliorates skin scarring and fibrosis” (Nature Communications, 2022)",
  "key": {"DAO": {"molecular_target": "T1, DAO (Homo sapiens, UniProt P19801)", "T1 sequence (P19801 20-751)": "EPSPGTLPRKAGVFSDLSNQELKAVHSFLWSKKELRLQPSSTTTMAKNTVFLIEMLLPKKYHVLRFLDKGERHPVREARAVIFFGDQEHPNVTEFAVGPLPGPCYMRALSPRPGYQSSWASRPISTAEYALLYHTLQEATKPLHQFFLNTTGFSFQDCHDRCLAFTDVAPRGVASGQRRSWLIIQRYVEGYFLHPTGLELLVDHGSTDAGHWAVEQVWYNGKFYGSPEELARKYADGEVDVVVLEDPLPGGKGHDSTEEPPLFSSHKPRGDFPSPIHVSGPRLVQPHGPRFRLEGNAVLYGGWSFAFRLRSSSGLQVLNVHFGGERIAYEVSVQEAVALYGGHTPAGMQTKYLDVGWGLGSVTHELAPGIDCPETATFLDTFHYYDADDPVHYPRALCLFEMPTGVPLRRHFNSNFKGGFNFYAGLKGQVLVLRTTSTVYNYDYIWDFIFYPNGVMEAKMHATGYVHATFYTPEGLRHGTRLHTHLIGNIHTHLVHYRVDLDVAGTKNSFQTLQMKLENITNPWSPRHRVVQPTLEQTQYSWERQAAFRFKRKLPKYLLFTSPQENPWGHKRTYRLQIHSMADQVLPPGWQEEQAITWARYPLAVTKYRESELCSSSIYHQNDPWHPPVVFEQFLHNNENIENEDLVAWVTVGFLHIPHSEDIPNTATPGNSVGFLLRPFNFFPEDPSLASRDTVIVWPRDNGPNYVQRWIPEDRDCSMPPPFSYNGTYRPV", "assay": "Compound oxidation by DAO", "assay_type": "biochemical"}, "[1]": {"system": "full-thickness excision injury scar", "assay": "Murine excision injury model", "assay_type": "in vivo, C57BL6/J mice", "description": "Having established promising in vivo anti-fibrotic efficacy, we next evaluated a full-thickness excision injury model in mice. Full-thickness excision injuries of approximately 1.1 cm^2 (approximately 2% body surface area) of dorsal skin were created under anesthesia. From Day 2 post-injury, animals received daily application of 0, 0.5, or 1.5% PXS-6302 oil in water cream for 28 days. At the end of the experiment, all animals were euthanised and scar tissue analyzed for collagen and cross-link content. […] Therefore, when applied after injury and during the healing phase, PXS-6302 reduced collagen crosslinking and total collagen deposition in the scar. Reassuringly, the efficacy of PXS-6302 was in line with earlier studies (performed with the first-generation inhibitor, PXS-4787, Supplementary Fig. S7) albeit with what appears to be a more comprehensive impact on crosslinking at a lower dose.\nCell pellets or isolated tissue samples were completely hydrolyzed in 1.5 mL 6 M hydrochloric acid for 24 h at 105 °C. After complete hydrolysis, samples were dried using a vacuum dryer and reconstituted using 200 µL MilliQ water. The sample clean-up was performed using solid-phase extraction method which uses C18 and SCX solid-phase extraction cartridges for sample purification. The samples were run on UPLC-MS-MS (Mass Spectrometer: Thermo Scientific TSQ Endura Triple quadrupole, UPLC: Thermo Scientific Dionex UltiMate 3000) using Agilent RRHD SB-C18,2.1x50mm,1.8um analytical column and solvent A: 10 mM ammonium formate, 0.1% formic acid, 0.1% HFBA in H2O and solvent B: 10 mM ammonium formate, 0.1% formic acid, 0.1% HFBA in MeOH and analyzed as previously described. Limits of detection are listed in Supplementary Table S4.\nNine-week-old C57BL6/J female mice (n = 8 per group) received a full-thickness excision injury of 1.1 cm^2 on dorsal area using a circular 12-mm biopsy punch (Acu-Punch, Badand Medical, P1250) (approximately 2% body surface area) under anesthesia. All animals received intramuscular injection of buprenorphine (0.1 mg/kg) as an analgesia. Paracetamol (1 mg/ml) was provided for 5 days post-injury in drinking water. Animals were allowed to recover for 24 h post-injury. Animals in the treatment group received twice a day application of 3% PXS-4787 cream for 28 days. For PXS-6302, once per day application of 1.5% concentration cream was used. At the end of the experiment, all animals were euthanised using an intraperitoneal injection of pentobarbitone (160 mg Kg-1) under Isoflurane anesthesia, and scar tissues were removed. The scar skin was fixed in 4% paraformaldehyde overnight at 4 °C. After fixation, tissues were washed in sterile PBS at room temperature. Samples were processed in Leica ASP300S Tissue Processor followed by embedding in paraffin blocks using tissue processor (Leica EG1150 modular tissue embedding center). The paraffin blocks were sectioned at 5 µm thickness using a wax microtome (fully automated Leica RM2255). For standard histology, the skin sections were stained with hematoxylin and eosin stain and Masson’s Trichrome stain. The stained sections were used to determine the collagen fiber orientation in the control and treatment specimens. All stained skin tissue sections were processed for whole slide imaging using a ScanScopeXT (Aperio Technologies, USA) at 20-x magnification. The digital images were collected and analyzed using ImageScope software (Aperio Techologies, Inc, USA). A piece of excised mouse scar tissue was processed for the collagen crosslinks extraction. The scar skin was weighed and homogenized in 900 µL PBS (FastPrep-24TM5G(MP) homogenizer). The tissue homogenate equivalent to 10 mg tissue was transferred to heat/acid resistant screw cap tube (VWR 16466-060) and the total volume of 870 µL was adjusted with PBS. The tissue homogenate was reduced with a Sodium borohydride buffer and processed for cross-link extraction protocol as mentioned in previous section."}, "Histamine H1": {"molecular_target": "Histamine H1 (Homo sapiens, UniProt P35367)", "sequence (P35367 whole entry)": "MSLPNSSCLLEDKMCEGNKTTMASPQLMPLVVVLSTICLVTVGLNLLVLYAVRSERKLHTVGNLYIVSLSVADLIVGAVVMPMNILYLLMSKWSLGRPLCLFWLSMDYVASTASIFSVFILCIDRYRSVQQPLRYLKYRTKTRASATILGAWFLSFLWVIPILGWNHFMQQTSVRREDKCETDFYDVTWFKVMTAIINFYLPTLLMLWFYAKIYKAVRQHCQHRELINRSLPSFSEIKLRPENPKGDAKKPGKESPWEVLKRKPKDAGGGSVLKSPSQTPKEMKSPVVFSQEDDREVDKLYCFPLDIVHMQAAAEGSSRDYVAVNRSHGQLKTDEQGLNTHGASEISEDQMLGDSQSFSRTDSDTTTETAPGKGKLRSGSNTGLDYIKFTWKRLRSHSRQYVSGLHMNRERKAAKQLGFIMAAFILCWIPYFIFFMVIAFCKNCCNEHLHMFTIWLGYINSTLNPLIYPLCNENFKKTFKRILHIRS", "assay": "Eurofins panel 239610", "assay_type": "binding"}, "Histamine H2": {"molecular_target": "Histamine H2 (Homo sapiens, UniProt P25021)", "sequence (P25021 whole entry)": "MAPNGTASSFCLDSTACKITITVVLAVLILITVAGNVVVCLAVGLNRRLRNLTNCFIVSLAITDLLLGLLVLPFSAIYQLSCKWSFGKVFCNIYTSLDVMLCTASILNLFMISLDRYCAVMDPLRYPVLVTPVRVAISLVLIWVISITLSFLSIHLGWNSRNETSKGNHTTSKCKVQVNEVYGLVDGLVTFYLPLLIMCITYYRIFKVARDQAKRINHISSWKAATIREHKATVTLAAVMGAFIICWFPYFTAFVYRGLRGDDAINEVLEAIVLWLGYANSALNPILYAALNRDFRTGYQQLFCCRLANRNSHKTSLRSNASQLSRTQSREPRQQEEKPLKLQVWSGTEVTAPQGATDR", "assay": "Eurofins panel 239710", "assay_type": "binding"}, "Opiate µ(OP3, MOP)": {"molecular_target": "Opiate µ(OP3, MOP) (Homo sapiens, UniProt P35372)", "sequence (P35372 whole entry)": "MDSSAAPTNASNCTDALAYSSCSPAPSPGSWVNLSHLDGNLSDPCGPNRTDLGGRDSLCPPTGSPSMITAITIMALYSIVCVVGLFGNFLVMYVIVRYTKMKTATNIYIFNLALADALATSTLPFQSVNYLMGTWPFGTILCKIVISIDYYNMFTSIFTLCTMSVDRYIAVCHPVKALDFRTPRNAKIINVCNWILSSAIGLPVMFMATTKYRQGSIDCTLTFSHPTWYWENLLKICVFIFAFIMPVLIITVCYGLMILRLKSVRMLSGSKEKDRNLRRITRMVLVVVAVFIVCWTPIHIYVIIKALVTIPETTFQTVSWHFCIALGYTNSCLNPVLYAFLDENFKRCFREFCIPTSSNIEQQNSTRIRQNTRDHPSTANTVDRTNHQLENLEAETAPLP", "assay": "Eurofins panel 260410", "assay_type": "binding"}, "[2]": {"molecular_target": "Serotonin (5-Hydroxytryptamine) 5-HT1A (Homo sapiens, UniProt P08908)", "sequence (P08908 whole entry)": "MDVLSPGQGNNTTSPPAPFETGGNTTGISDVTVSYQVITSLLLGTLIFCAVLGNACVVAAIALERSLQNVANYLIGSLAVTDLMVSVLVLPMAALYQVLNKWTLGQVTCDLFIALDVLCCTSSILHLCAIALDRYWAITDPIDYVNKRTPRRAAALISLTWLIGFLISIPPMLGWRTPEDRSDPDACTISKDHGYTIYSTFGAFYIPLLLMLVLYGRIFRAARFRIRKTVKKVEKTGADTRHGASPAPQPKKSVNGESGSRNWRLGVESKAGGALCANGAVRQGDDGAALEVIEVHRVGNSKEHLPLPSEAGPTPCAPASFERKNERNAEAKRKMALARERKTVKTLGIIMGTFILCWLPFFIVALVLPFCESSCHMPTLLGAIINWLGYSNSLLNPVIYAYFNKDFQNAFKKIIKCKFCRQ", "assay": "Eurofins panel 271110", "assay_type": "binding"}, "[3]": {"molecular_target": "Transporter, Norepinephrine (NET) (Homo sapiens, UniProt P23975)", "sequence (P23975 whole entry)": "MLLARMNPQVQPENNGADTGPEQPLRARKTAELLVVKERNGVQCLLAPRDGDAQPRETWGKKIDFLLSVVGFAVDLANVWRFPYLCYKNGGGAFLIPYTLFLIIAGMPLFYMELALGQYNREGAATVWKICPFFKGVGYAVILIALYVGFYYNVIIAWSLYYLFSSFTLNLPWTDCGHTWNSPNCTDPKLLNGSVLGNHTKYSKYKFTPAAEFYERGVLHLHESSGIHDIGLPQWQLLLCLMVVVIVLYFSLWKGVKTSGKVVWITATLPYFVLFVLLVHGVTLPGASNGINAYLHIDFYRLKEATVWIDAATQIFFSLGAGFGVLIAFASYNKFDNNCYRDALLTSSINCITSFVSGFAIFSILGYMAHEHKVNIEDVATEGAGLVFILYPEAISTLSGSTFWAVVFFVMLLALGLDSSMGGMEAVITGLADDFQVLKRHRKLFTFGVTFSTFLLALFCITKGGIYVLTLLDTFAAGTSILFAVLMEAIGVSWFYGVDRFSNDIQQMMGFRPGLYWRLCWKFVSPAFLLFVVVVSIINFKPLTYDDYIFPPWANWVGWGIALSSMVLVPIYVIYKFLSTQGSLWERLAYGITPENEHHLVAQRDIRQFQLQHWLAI", "assay": "Eurofins panel 204410", "assay_type": "binding"}, "[4]": {"molecular_target": "Transporter, Serotonin (5- Hydroxytryptamine) (SERT) (Homo sapiens, UniProt P31645)", "sequence (P31645 whole entry)": "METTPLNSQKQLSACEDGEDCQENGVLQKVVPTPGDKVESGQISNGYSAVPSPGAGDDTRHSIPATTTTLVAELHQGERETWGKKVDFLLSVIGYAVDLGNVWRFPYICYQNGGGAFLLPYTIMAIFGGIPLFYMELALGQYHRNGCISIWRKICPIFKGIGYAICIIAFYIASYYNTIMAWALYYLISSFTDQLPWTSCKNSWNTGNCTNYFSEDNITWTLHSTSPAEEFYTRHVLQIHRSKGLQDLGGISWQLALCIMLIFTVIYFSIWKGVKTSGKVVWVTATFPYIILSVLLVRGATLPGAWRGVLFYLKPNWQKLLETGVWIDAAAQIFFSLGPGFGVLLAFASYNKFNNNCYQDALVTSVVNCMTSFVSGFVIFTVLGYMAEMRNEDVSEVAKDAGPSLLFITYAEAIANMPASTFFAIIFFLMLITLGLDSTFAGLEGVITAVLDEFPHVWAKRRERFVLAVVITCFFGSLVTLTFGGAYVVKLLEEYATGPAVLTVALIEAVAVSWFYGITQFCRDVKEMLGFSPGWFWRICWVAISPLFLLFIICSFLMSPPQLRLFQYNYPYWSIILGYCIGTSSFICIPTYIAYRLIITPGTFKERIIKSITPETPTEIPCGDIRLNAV", "assay": "Eurofins panel 274030", "assay_type": "binding"}, "[5]": {"conditions": "3% PXS-4787, individual samples"}, "[6]": {"conditions": "0.5 or […] cream daily for 28 days"}},
  "note": "Values joined by “and” are separate entries in the source; they are usually repeats but may differ in a detail not shown here. Equal entries are not always repeated.",
  "data": [
    {"smiles": "N#CCCN", "note": "[BAPN, β-aminoproprionitrile, reference compound]", "values": [
      {"measurement": "DAO specificity (Fig 2G), oxidation, individual experiments", "setting": "DAO; 30", "value": "3.03 and 4.57 and 4.19 and 2.62 and 3.96"},
      {"measurement": "DAO specificity (Fig 2G), oxidation, individual experiments", "setting": "DAO; 60", "value": "5.81 and 3.22 and 2.98 and 4.96"},
      {"measurement": "DAO specificity (Fig 2G), oxidation, individual experiments", "setting": "DAO; 90", "value": "9.3 and 4.42 and 7.32"}
    ]},
    {"smiles": "NC/C=C(\\F)CS(=O)(=O)c1ccccc1", "note": "[PXS-4787]", "values": [
      {"measurement": "DLHNL", "setting": "[1]; [5]", "value": "32.598 pmol/mg tissue and 48.992 pmol/mg tissue and 38.94 pmol/mg tissue and 30.0045 pmol/mg tissue and 38.524 pmol/mg tissue and 51.535 pmol/mg tissue and 45.099 pmol/mg tissue and 36.456 pmol/mg tissue and 45.26 pmol/mg tissue"},
      {"measurement": "DPD", "setting": "[1]; [5]", "value": "0.2026 pmol/mg tissue and 0.9604 pmol/mg tissue and 0.9521 pmol/mg tissue and 0.3416 pmol/mg tissue and 0.3259 pmol/mg tissue and 0.4694 pmol/mg tissue and 0.5793 pmol/mg tissue and 0.3046 pmol/mg tissue"},
      {"measurement": "HLNL", "setting": "[1]; [5]", "value": "11.709 pmol/mg tissue and 8.873 pmol/mg tissue and 7.946 pmol/mg tissue and 7.092 pmol/mg tissue and 8.4919 pmol/mg tissue and 8.338 pmol/mg tissue and 7.8195 pmol/mg tissue and 7.455 pmol/mg tissue"},
      {"measurement": "HYP", "setting": "[1]; [5]", "value": "8529.4 pmol/mg tissue and 13422.8 pmol/mg tissue and 10345 pmol/mg tissue and 7129.2 pmol/mg tissue and 10620.5 pmol/mg tissue and 15497 pmol/mg tissue and 11840.8 pmol/mg tissue and 10529.6 pmol/mg tissue and 12893.7 pmol/mg tissue"},
      {"measurement": "PYD", "setting": "[1]; [5]", "value": "3.941 pmol/mg tissue and 2.065 pmol/mg tissue and 3.401 pmol/mg tissue and 3.561 pmol/mg tissue and 3.481 pmol/mg tissue and 3.75 pmol/mg tissue and 2.469 pmol/mg tissue and 2.034 pmol/mg tissue"},
      {"measurement": "collagen cross-links formation in mouse scar", "setting": "[1]; 3% cream for 28 days", "value": "Reduced"},
      {"measurement": "inhibition at 10 µM", "setting": "Histamine H1; 10 µM", "value": 14, "unit": "%"},
      {"measurement": "inhibition at 10 µM", "setting": "Histamine H2; 10 µM", "value": -4, "unit": "%"},
      {"measurement": "inhibition at 10 µM", "setting": "Opiate µ(OP3, MOP); 10 µM", "value": 3, "unit": "%"},
      {"measurement": "inhibition at 10 µM", "setting": "[2]; 10 µM", "value": 0, "unit": "%"},
      {"measurement": "inhibition at 10 µM", "setting": "[3]; 10 µM", "value": 24, "unit": "%"},
      {"measurement": "inhibition at 10 µM", "setting": "[4]; 10 µM", "value": 8, "unit": "%"}
    ]},
    {"smiles": "NC/C=C(\\F)C(F)(F)S(=O)(=O)c1ccccc1", "note": "[PXS-6302]", "values": [
      {"measurement": "DAO specificity (Fig 2G), oxidation, individual experiments", "setting": "DAO; 30", "value": "1.03 and 0.98 and 1 and 1.08 and 0.97 and 0.99 and 1.04 and 1.01 and 1.07 and 0.91"},
      {"measurement": "DAO specificity (Fig 2G), oxidation, individual experiments", "setting": "DAO; 60", "value": "1.17 and 1.11 and 1.01"},
      {"measurement": "DAO specificity (Fig 2G), oxidation, individual experiments", "setting": "DAO; 90", "value": "1.87 and 1.39 and 1.55"},
      {"measurement": "DHLNL", "setting": "[1]; 0.5%, individual animals", "value": "67.3445 pmol/mg protein and 104.493 pmol/mg protein and 49.564 pmol/mg protein and 93.5833 pmol/mg protein and 114.502 pmol/mg protein and 104.151 pmol/mg protein and 87.6663 pmol/mg protein and 102.971 pmol/mg protein"},
      {"measurement": "DPD", "setting": "[1]; 0.5%, individual animals", "value": "0.09524 pmol/mg protein and 0.2563 pmol/mg protein and 0.2515 pmol/mg protein and 0.4184 pmol/mg protein and 0.4492 pmol/mg protein and 0.4037 pmol/mg protein and 0.2113 pmol/mg protein and 0.2885 pmol/mg protein"},
      {"measurement": "HLNL", "setting": "[1]; 0.5%, individual animals", "value": "0.7003 pmol/mg protein and 0.9861 pmol/mg protein and 0.7921 pmol/mg protein and 1.215 pmol/mg protein and 1.527 pmol/mg protein and 1.179 pmol/mg protein and 1.122 pmol/mg protein and 0.9282 pmol/mg protein"},
      {"measurement": "HYP", "setting": "[1]; 0.5%, individual animals", "value": "135437 pmol/mg protein and 169286 pmol/mg protein and 127310 pmol/mg protein and 207537 pmol/mg protein and 183083 pmol/mg protein and 195703 pmol/mg protein and 151852 pmol/mg protein and 169426 pmol/mg protein"},
      {"measurement": "PYD", "setting": "[1]; 0.5%, individual animals", "value": "1.932 pmol/mg protein and 5.635 pmol/mg protein and 3.784 pmol/mg protein and 5.7092 pmol/mg protein and 5.347 pmol/mg protein and 5.273 pmol/mg protein and 4.615 pmol/mg protein and 4.89 pmol/mg protein"},
      {"measurement": "hydroxyproline concentration in scar", "setting": "[1]; [6]", "value": "dose-dependent reduction"},
      {"measurement": "mature and immature crosslinks in scar", "setting": "[1]; [6]", "value": "dose-dependently diminished"},
      {"measurement": "inhibition at 30 µM", "setting": "Histamine H1; read-out: % Inh.", "value": 10, "unit": "%"},
      {"measurement": "inhibition at 30 µM", "setting": "Histamine H2; read-out: % Inh.", "value": 5, "unit": "%"},
      {"measurement": "inhibition at 30 µM", "setting": "Opiate µ(OP3, MOP); read-out: % Inh.", "value": 12, "unit": "%"},
      {"measurement": "inhibition at 30 µM", "setting": "[2]; read-out: % Inh.", "value": 3, "unit": "%"},
      {"measurement": "inhibition at 30 µM", "setting": "[3]; read-out: % Inh.", "value": 55, "unit": "%"},
      {"measurement": "inhibition at 30 µM", "setting": "[4]; read-out: % Inh.", "value": 20, "unit": "%"}
    ]}
  ]
}
